Results on one compound are retold here after PMC10889159, “Synthesis and Antitumor Activity Evaluation of Novel Echinatin Derivatives with a 1,3,4-Oxadiazole Moiety” (International Journal of Molecular Sciences, 2024).

In data set [1] the target is c-KIT (Homo sapiens, UniProt P10721). Put plainly: Biochemical c-KIT activity assay (ADP-Glo). To be noted: 20 μM ATP, read-out: IC50 for c-KIT inhibition. The protocol:
The enzymatic activities of c-KIT were determined by in vitro kinase assays using the ADP-Glo reagent (Promega, Madison, WI, USA) according to the manufacturer’s instructions. Briefly, 250 ng of c-KIT protein was incubated with compounds in 10 μL of reaction buffer (40 mM Tris−HCl, pH 7.4, 2 mM MnCl2, 2 mM DTT, 20 mM MgCl2, 0.1 mg/mL bovine serum albumin, 1 mM Na3VO4) containing 20 μΜ ATP and 40 μM poly (Glu4-Tyr1) as substrates at 30 °C for 150 min. The ADP-Glo reagent was then added, and the mixture was incubated at 25 °C for 40 min. The kinase detection reagent was added for another 30 min at 25 °C. The converted ADP was determined by luminescence measurement using a Wallac Vector 1420 multilabel counter (PerkinElmer).
A general note: ADP-Glo first removes unused ATP, then detects ADP through luciferase.

For data set [2], the system named is HCT116 cells. Put plainly: Wound healing assay. In kind it is cell-based, human. The following applies: 24 h, serum-free medium. The procedure: Five lines were drawn evenly on the back of the 6-well plate and transferred HCT116 cells (1 × 10^6/well) in a 6-well plate until a uniform monolayer of cells formed at the bottom of the 6-well plate. Then, we drew lines on the cells using a 200 μL pipette tip. We then carefully washed the damaged cell monolayer with PBS, then treated with different concentrations of Compound T4, and incubated in serum-free medium for 24 h. We then used an inverted microscope to take photos of the 6-hole plate at the 0 and 24 h time points and used ImageJ for processing and analysis.

The test system of data set [3] is HCT116 cells. Put plainly: Cell cycle analysis (PI staining, flow cytometry). In kind it is cell-based, human. The protocol: The effects of Compound T4 on cell cycle progression were verified by using a standard (PI) staining procedure followed by flow cytometry analysis. HCT116 cells were seeded in 6-well plates and incubated for 24 h until the cells adhered. […] Control cells and treated cells were washed twice with PBS, centrifuged (1000 rpm, 5 min), and collected at a final concentration of 50,000 cells. Then, a single cell suspension was fixed in ice-cold 70% (v/v) ethanol overnight at 4 °C. The cells were washed again with PBS. A total of 100 μL RNase A was added and the cells were incubated at 37 °C for 30 min. The cell DNA was stained with 400 μL PI for 30 min. Data collection and analysis were carried out using a flow cytometer (Beckman Coulter cytoFLEX, USA).
For orientation: A flow cytometer gives signals particle by particle.

Data set [4] concerns HCT116 cells. The data set is described as follows: TUNEL staining. In kind it is cell-based, human. To be noted: varying concentrations. The procedure:
The slides were immersed in 4% paraformaldehyde (pH 7.4) for 25 min at room temperature and then washed with PBS 3 times. The cells were immersed in 0.1% Triton X-100 solution prepared with PBS for 10 min (operation on ice) and then washed twice with PBS. Dilute 5× equilibration buffer with deionized water and 100 µL 1× equilibration buffer were added to each climbing tablet to cover the sample area to be tested, then incubated at room temperature for 15 min. […] The slides were placed in a wet box and incubated at 37 °C for 60 min. The wet box was wrapped with aluminum foil to avoid light. These were then washed three times with PBS with DAPI dripped and incubated in the dark for 5 min. The nucleus of the specimen was stained. Water-absorbent paper was used to absorb the liquid on the climbing sheet, then a sealing liquid containing an anti-fluorescence quenching agent was used to seal the film before the images were observed and collected under a fluorescence microscope.

Data set [5] concerns CCC-HIE-2. The data set is described as follows: Cytotoxicity toward CCC-HIE-2 cells. In kind it is cell-based, human.
The subject of data set [6] is KU812. Put plainly: CCK8 antiproliferative assay, KU812. To be noted: Homo sapiens, CCK8, 48 h, mean ± SD, n = 3. In kind it is cell-based. The protocol: (§1) For all biological assays, all of the synthesized compounds were dissolved in DMSO. The cytotoxicity of all of the target compounds against the HCT116, K562, KU812, and HT-29 cells was determined by an CCK8 assay in vitro using adriamycin and echinatin as the controls. About 3000 cells per well were seeded in a 96-well plate and incubated for 24 h. Then, the cells were stimulated with different concentrations of test compounds for 48 h. The CCK8 solution (100 µL 0.5 mg/mL^−1) was added to each well, and the cells were incubated for another 4 h. Then, the absorbance of the samples was measured at 450 nm. The IC50 values were calculated according to the Logit method after obtaining the inhibitory rate. All experiments were repeated three times.

The subject of data set [7] is HCT116 cells. The data set is described as follows: Intracellular ROS generation (DCFH-DA, flow cytometry). To be noted: escalating concentrations. In kind it is cell-based, human. The protocol:
Approximately 4 × 10^5 cells per well were seeded in a 6-well plate and incubated for 12 h, then the discarded medium was replaced with fresh medium containing different concentrations of Compound T4 (0 μM, 0.625 μM, 1.25 μM, 2.5 μM, and 5 μM) for 48 h. ROS production was detected by using the peroxide-sensitive fluorescent probe DCFH-DA. After treatment with different concentrations of T4, the cells were incubated with 10 µg/mL DCFH-DA at 37 °C for 20 min. Then, the cells were harvested. Samples were analyzed by flow cytometry (FACS Calibur, Becton-Dickinson, East Rutherford, NJ, USA).

Data set [8] has as its system K562. The data set is described as follows: CCK8 antiproliferative assay, K562. In kind it is cell-based. The following applies: Homo sapiens, CCK8, 48 h, mean ± SD, n = 3. The procedure:
as §1
Background: Tetrazolium dyes change colour on reduction, which living cells bring about.

Data set [9] deals with HCT116 cells. Put plainly: Cell colony formation assay. In kind it is cell-based, human. To be noted: 1.25, 2.5, 5 µM, 14 d. The procedure: To investigate the effects of echinatin derivatives on the clonogenic potential of HCT116 cells, the colony formation assay was performed as previously described. HCT116 cells were seeded into 6-well plates at 37 °C with 5% CO2 for 24 h and then treated with Compound T4 and echinatin at various concentrations (0 µM, 1.25 µM, 2.5 µM, and 5 µM) for 14 d. Then, cells were stained with crystal violet solution and clone numbers were counted directly with the naked eye.

For data set [10], the system named is HT-29. The data set is described as follows: CCK8 antiproliferative assay, HT-29. In kind it is cell-based. To be noted: Homo sapiens, CCK8, 48 h, mean ± SD, n = 3. The procedure:
as §1

The subject of data set [11] is four cancer cell lines (K562, KU812, HT-29, HCT116). Put plainly: CCK8 antiproliferative assay, summary over the four cancer cell lines. In kind it is cell-based. The following applies: Homo sapiens; range over K562, KU812, HT-29, HCT116; read-out: IC50 against the four cancer cell lines. The procedure:
as §1

Data set [12] relates to HCT116. Put plainly: CCK8 antiproliferative assay, HCT116. To be noted: Homo sapiens, HCT-116; CCK8, 48 h, mean ± SD, n = 3. In kind it is cell-based. The procedure:
as §1

Data set [13] relates to HCT116 cells. The data set is described as follows: Western blot of c-KIT downstream proteins and caspase-3. In kind it is cell-based, human. The following applies: 48 h. The protocol: HCT116 cells were seeded at a density of 4 × 10^5 cells per well and treated with various concentrations of Compound T4 (0, 1.25, 2.5, and 5 µM) for 48 h. After this, cells were collected and washed twice with ice-cold DPBS. The pellets were resuspended in a total protein extraction buffer (20 mM HEPES, 350 mM NaCl, 20% glycerol, 1% NP-40, 1 mM MgCl2, 0.5 mM EDTA, 0.1 mM EGTA, 0.1 mM DTT, 0.1 mM PMSF) containing a protease inhibitor cocktail and incubated on ice for 30 min with intermittent mixing. The protein concentration was measured using the Bradford reagent (Bio-Rad Laboratories Inc., Hercules, CA, USA). An equal amount (20 µg) of protein was loaded on 10% poly acrylamide gels and transferred to a nitrocellulose membrane. After blocking with 5% skimmed milk, the membrane was incubated at 4 °C overnight with specific primary antibodies. The membrane was washed and incubated at room temperature for 1 h with secondary antibodies conjugated with horseradish peroxidase (HRP). Finally, the immunoblot was developed for visualization using a chemiluminescence kit. Primary antibodies for Cleaved-caspase 3, MEK, p-MEK, Erk1/2, p-Erk1/2, mTOR, Akt, p-Akt, and GAPDH and all secondary antibodies were obtained from Santa Cruz Biotechnology (Santa Cruz, CA, USA).

c-KIT, sequence (P10721 26-976): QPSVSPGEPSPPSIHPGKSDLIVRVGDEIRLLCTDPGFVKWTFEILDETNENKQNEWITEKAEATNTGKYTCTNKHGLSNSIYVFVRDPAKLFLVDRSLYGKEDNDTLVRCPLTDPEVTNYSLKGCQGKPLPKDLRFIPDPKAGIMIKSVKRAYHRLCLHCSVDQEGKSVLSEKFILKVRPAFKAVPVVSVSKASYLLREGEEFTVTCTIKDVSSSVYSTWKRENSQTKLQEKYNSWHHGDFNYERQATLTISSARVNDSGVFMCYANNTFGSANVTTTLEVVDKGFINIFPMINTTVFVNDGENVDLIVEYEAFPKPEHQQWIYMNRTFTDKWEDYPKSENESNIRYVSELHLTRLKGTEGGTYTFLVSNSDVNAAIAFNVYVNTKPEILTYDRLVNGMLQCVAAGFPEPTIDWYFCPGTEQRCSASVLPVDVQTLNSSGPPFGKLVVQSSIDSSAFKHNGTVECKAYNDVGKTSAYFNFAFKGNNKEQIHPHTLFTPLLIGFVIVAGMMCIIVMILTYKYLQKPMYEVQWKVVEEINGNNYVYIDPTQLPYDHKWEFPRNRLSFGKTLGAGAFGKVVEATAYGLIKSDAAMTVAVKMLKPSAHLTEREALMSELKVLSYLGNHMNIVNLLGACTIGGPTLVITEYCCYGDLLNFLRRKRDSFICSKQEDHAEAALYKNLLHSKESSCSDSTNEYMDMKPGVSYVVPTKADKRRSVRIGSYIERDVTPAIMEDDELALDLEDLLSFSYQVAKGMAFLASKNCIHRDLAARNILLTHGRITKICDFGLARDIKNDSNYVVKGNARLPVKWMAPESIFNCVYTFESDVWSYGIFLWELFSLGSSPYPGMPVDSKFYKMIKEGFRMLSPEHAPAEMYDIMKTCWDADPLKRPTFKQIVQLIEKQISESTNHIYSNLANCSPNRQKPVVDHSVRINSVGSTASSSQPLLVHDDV

The term IC50 denotes the point on the concentration scale where inhibition reaches its midpoint. The melting point is the temperature of the solid-liquid transition. Consider `COc1cc(O)ccc1/C=C/C(=O)c1ccc(OCc2nnc(Nc3ccc(C(F)(F)F)cc3)o2)cc1` [Compound T4, (E)-3-(4-Hydroxy-2-methoxyphenyl)-1-{4-{{5-{[4-(trifluoromethyl)phenyl]amino}-1,3,4-oxadiazol-2-yl}methoxy}phenyl}propenone], for which the melting point lay within 180.5 to 181.4 °C. Further, in data set [1], the half-maximal inhibitory concentration (IC50) was 0.178 µM. In addition, the HCT116 cell migration entry in data set [2] is on record as “strongly inhibited”. Moreover, the “distribution of cell cycle phase (%): S” value in data set [3] (5 μM, 48 h (control 28.0%)) is reported as 16.8%. Moreover, the “distribution of cell cycle phase (%): G0/G1” value in data set [3] (5 μM, 48 h (control 54.7%)) came out at 65.1%. Besides, in data set [3] (various concentrations, 48 h), the cell cycle arrest entry is given as “blocked the cell cycle in the G0/G1 phase”. Also, the “apoptotic cells (TUNEL red fluorescence)” value in data set [4] is on record as “increase in apoptotic cells”. Besides, the “growth of CCC-HIE-2 cells” value in [5] was “not significantly influenced”. Further, the “SI (selectivity index)” value in data set [5] (CCC-HIE-2 vs HCT116) is 16.1. For the same compound, half-maximal inhibition in data set [5] (human embryonic intestinal mucosal derived cell line) (IC50) required 27.6 ± 1.37 µM. This compound displayed a half-inhibitory concentration (IC50) in [6] of 8.09 ± 0.91 µM. Besides, the “generation and accumulation of ROS” value in data set [7] was “concentration-dependent generation and accumulation of ROS”. In addition, the concentration for half-maximal inhibition (IC50) in data set [8] stood at 8.6 ± 0.61 µM. For the same compound, in data set [9], the cell colony number result was “decreased in a dose-dependent manner”. In data set [10], this compound displayed an IC50 of 2.87 ± 0.32 µM. Further, the IC50 in data set [11] lay in the range of 1.71 to 8.6 µM. For the same compound, the IC50 in data set [12] is 1.71 ± 0.46 µM. In data set [13] (1.25, 2.5, 5 μM), the “expression of the phosphorylated forms of Akt, MEK, Erk1/2, and mTOR” value is “significantly downregulated”; the “protein expression levels of Akt, MEK, and Erk1/2” value is recorded as “not significantly altered”. In addition, the “expression of caspase-3, as a percentage of GAPDH” value in data set [13] (upregulated from 24% following T4 treatment (0-5 μM)) came to 49%.
